Molecular target: Src kinase (Homo sapiens, UniProt P12931)
Test: ADP-Glo kinase assay, […] Src, […] ATP, peptide substrate

Sequence of Src kinase (P12931 2-536): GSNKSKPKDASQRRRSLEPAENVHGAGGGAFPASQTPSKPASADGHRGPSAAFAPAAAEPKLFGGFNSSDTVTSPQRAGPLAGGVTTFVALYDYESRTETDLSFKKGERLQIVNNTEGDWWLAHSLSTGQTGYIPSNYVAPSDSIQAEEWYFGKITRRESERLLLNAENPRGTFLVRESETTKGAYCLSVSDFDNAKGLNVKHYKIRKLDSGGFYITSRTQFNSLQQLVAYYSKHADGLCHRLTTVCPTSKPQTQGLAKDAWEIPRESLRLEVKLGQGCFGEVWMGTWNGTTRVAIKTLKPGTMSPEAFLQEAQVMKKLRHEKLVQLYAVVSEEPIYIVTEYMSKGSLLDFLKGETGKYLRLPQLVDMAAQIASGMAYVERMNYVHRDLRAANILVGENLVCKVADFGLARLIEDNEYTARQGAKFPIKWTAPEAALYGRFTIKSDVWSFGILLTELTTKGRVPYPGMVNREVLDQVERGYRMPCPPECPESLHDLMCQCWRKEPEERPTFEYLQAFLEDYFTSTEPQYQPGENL

IC50: 0.323 µM
SMILES: Cc1nc(Nc2ncc(C(=O)Nc3cc(NC(=O)c4cccc(C(F)(F)F)c4)ccc3C)s2)cc(N2CCN(CCO)CC2)n1 [UM-164]

— article PMC13397736, “LEP-AD: language embedding of proteins and attention to drugs predicts drug-target interactions” (Journal of Cheminformatics, 2026)
